Article PMC7125190, “Native/citrullinated LL37-specific T-cells help autoantibody production in Systemic Lupus Erythematosus” (Scientific Reports, 2020)

Test system: SLE/CLE skin and kidney, HD skin
Assay: Immunohistochemistry and laser scanner confocal microscopy of tissues
Design: species or system human
Details: for presence in SLE and CLE target organs: IHC and LSM, skin (dermis) and kidney; for kidney biopsies with DNA filaments bound to LL37 and/or cit-LL37: lupus nephritis, four of seven biopsies
Protocol: Immunohistochemistry and laser scanner confocal microscopy (LSM)
We performed staining on […] paraffin or frozen sections of human lupus erythematosus skin specimens obtained from CHUV, Dept. of Dermatology. Staining with anti-cit-LL37 Mabs was performed using the antibodies Mab142 and Mab137 at 1:40 dilution, followed by incubation with a […] (Abcam). HRP and DAB (DAKO) were used to develop the color. Nuclear staining was performed with Mayer’s haematoxylin. […]
Frozen or paraffin-included SLE renal biopsies, obtained from Policlinico Umberto I, Rome, IT or CHUV Lausanne, CH, were stained, after saturation with blocking buffer (PBS, 0.05% tween 20, 4% BSA) for 1 hour at room temperature. Bopsies in paraffin were stained after de-paraffination in xilene (5 minutes, two times), followed by passages in: absolute ethanol (3 minutes), 95% ethanol in water (3 minutes), 80% ethanol in water (3 minutes), 70% ethanol in water (3 minutes), and antigen retrieval (5 minutes at […]
95°C in 10 mM sodium citrate, pH 6.0). Antibodies (Mab142 or Mab137) were added at 1:50 dilution (all diluited in blocking buffer) (isotype control was added at 1:100 concentration) for 1 hour at room temperature in a humidified chamber. Anti-C9 (Atlas antibodies, Sweden) was added at 1:50 dilution (all antibody dilutions were in blocking buffer). Slides were washed three times for 3 minutes under agitation with PBS 0.1% tween 20 and incubated with donkey anti-mouse or anti-rabbit secondary antibody or mouse anti-goat antibody, conjugated with AlexaFluor 647, Alexa Fluor 568 or 594 or AlexaFluor 488, depending on the combinations of markers analyzed (in humidified chamber). Slides were washed again, and mounted in Prolong Gold anti-fade media containing a DNA dye (DAPI) (Molecular Probes), before analysis with a confocal microscope, objectives 20x, or 40x and 60x in oil immersion. Images were taken by a FV1000 confocal microscope (Olympus, Tokyo, Japan), using a Olympus planapo objective 40x or 60x oil A.N. 1,42.
Excitation light was obtained by a Laser Dapi 408 nm for DAPI, an Argon Ion Laser (488 nm) for FITC (Alexa 488), a Diode Laser HeNe (561 nm) for Alexa 568, and a Red Diode Laser (638 nm) for Alexa 647. DAPI emission was recorded from 415 to 485 nm, FITC emission was recorded […]
For quantification of LL37 and cit-LL37 in renal/skin biopsies, we counted the specific staining spots in at least 3 sections from each patient, by using the ImageJ64 software. For comparison we also counted the staining in HD skin, as background staining. To estimate the percent of co-localization between IgG and LL37 staining we measured, in three sections for each patient, the total IgG or LL37 staining in single color images and than on merge images we assessed the spots that indicates the co-localization IgG/LL37.
Reactivity of mouse anti-LL37 monoclonal antibodies (Mab137 and Mab142) Biotinylated native LL37, cit-SCR LL37, SCR LL37, cit-LL37, and the other citrullinated and non-citrullinated control antigenic peptides (also biotinylated) were diluted at 2-to-5 µg/mL and added to the wells over night at 4°C. Excess unbound peptides were washed away with wash buffer (PBS

| Substance | presence in SLE and CLE target organs | expression in HD skin (healthy donor skin) | kidney biopsies with DNA filaments bound to LL37 and/or cit-LL37 |
| --- | --- | --- | --- |
| LLGDFFRKSKEKIGKEFKRIVQRIKDFLRNLVPRTES [LL37, native LL37, antimicrobial peptide, 37 aa] | detected | did not express significant amounts | 57% |
| LLGDFFR(cit)KSKEKIGKEFKR(cit)IVQR(cit)IKDFLR(cit)NLVPR(cit)TES [cit-LL37, citrullinated LL37 (citrullinated at all five arginin positions)] | detected | – | 57% |
